The results in this text go back to ChEMBL document CHEMBL1129006, “Orally active inhibitors of stromelysin-1 (MMP-3)” (Bioorg Med Chem Lett, 1996).

As usually defined, the inhibition in vivo is how much of the control response was suppressed. A higher inhibition in vivo goes with strong suppression. The term Ki denotes a dissociation constant, usually derived from enzyme kinetics or from competition with a known ligand. Read a low Ki as tighter binding. By ED50 is commonly meant the dose that gives a 50% effect, or the effect in half of the subjects.

For test [1], the system named is Mus musculus. Briefly: Compound was tested for inhibition of MMP-3 -mediated degradation of radiolabeled transferrin in mouse pleural cavity(PLCAV) at a dose 30 mg/kg administered intravenously. The format is functional. The settings on record: route intravenous.
The test system of test [2] is Mus musculus. Briefly: Compound was tested for inhibition of MMP-3 -mediated degradation of radiolabeled transferrin in mouse pleural cavity(PLCAV) at a dose 100 mg/kg administered perorally. The format is functional. The settings on record: route oral.
A further test concerns the target Stromelysin-1 (Homo sapiens, UniProt P08254).
Test [3] deals with 72 kDa type IV collagenase (Homo sapiens, UniProt P08253). The experiment in a line: Inhibition of matrix metalloprotease-2 (MMP-2).
In a further test the target is T1, Interstitial collagenase (Homo sapiens, UniProt P03956).
T1 sequence (P03956 whole entry): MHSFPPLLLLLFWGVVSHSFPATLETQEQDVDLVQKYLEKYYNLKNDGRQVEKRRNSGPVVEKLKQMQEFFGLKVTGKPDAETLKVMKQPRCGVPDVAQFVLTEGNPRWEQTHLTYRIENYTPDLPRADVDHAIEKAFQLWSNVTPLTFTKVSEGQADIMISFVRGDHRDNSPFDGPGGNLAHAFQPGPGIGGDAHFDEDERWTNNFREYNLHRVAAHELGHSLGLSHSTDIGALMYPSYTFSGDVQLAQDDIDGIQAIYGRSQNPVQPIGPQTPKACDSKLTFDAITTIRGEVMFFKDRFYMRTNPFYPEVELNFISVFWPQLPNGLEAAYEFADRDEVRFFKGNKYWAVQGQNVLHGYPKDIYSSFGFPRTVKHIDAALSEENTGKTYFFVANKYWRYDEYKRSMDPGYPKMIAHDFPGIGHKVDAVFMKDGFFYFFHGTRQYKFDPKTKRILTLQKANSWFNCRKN
Briefly: Inhibition of matrix metalloprotease-1 (MMP-1).

Sequence of Stromelysin-1 (P08254 whole entry): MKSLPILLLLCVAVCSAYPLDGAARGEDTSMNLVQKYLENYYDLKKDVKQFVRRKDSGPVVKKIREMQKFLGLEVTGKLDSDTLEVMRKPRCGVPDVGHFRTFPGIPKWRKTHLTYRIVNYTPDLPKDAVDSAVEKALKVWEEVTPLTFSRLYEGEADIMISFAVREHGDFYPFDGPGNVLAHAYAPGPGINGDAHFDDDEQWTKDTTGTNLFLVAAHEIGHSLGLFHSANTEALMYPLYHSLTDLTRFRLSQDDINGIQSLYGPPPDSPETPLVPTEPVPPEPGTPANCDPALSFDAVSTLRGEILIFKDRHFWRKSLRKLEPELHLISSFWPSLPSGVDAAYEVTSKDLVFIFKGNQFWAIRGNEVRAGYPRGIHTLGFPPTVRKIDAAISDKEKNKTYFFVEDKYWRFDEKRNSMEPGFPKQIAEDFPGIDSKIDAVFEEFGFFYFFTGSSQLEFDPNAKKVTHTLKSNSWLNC
Sequence of 72 kDa type IV collagenase (P08253 whole entry): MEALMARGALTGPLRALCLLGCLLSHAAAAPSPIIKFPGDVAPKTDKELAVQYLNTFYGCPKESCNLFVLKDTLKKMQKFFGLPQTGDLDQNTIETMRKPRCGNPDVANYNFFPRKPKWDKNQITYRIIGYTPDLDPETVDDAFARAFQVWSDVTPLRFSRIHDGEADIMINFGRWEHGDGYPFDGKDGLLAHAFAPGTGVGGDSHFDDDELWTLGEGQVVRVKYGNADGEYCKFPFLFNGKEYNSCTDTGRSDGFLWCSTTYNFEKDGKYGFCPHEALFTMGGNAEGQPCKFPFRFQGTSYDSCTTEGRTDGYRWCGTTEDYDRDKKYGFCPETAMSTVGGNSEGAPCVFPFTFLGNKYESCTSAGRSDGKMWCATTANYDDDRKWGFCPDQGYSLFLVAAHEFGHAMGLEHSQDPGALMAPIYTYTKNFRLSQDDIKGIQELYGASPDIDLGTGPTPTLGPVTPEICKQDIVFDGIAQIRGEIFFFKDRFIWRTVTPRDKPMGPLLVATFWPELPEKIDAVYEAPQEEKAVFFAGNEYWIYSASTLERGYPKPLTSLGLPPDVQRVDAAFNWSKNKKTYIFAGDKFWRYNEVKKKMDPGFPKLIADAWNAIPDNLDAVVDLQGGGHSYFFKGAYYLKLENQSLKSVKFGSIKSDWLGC
Description for Stromelysin-1: Inhibition of matrix metalloprotease-3 (MMP-3).

As for `CC(C)C[C@H](NC(=O)[C@H](CCc1ccccc1)N[C@H](CCCCN1C(=O)c2ccccc2C1=O)C(=O)O)C(=O)Nc1ccccc1`, in the test with Mus musculus [1], the inhibition in vivo at 30 mg/kg came to 91%. In the test with Mus musculus [2], at 100 mg/kg the inhibition in vivo was 1%.
In the test on Mus musculus [1], `CCCc1ccc(CC[C@H](N[C@H](CCCCN2C(=O)c3ccccc3C2=O)C(=O)O)C(=O)N[C@@H](CC(C)C)C(=O)Nc2ccccc2)cc1` yielded an inhibition in vivo at 30 mg/kg of 89%. For the same molecule, the Ki at Stromelysin-1 is 1.9 nM; in test [3], 2.6 nM; on Interstitial collagenase, greater than 10000 nM.
Turning to `CC(C)C[C@H](NC(=O)[C@H](CCc1ccccc1)NCC(=O)O)C(=O)Nc1ccccc1`, the Ki is 3600 nM on Stromelysin-1, 470 nM in test [3] and 4620 nM at Interstitial collagenase.
As to `CCCc1ccc(CC[C@H](C[C@H](CCCCN2Cc3ccccc3C2=O)C(=O)O)C(=O)N[C@@H](CC(C)C)C(=O)Nc2ccccc2)cc1`, at 30 mg/kg the inhibition in vivo in the test with Mus musculus [1] was 82%. For the same molecule, the Ki at Stromelysin-1 is 0.36 nM; in test [3], 5.7 nM; on Interstitial collagenase it was greater than 10000 nM. Also, at 100 mg/kg the inhibition in vivo with Mus musculus [2] was 20%.
For `CCCc1ccc(CC[C@H](N[C@H](CCCCN2Cc3ccccc3C2=O)C(=O)O)C(=O)N[C@@H](CC(C)C)C(=O)Nc2ccccc2)cc1` the same measures were 81%, 9.5 nM, 110 nM, 1600 nM and 4%.
As for `CC(C)C[C@H](NC(=O)[C@@H](CCC(=O)O)CCc1ccccc1)C(=O)Nc1ccccc1`, the Ki on Stromelysin-1 is 5800 nM; in test [3] it was greater than 1000 nM; on Interstitial collagenase it was greater than 10000 nM.
On to `CCCc1ccc(CC[C@H](CCC(=O)O)C(=O)N[C@@H](CC(C)C)C(=O)Nc2ccccc2)cc1`, for which the Ki was 140 nM at Stromelysin-1, 220 nM in test [3] and greater than 10000 nM on Interstitial collagenase. This molecule returned an ED50 with Mus musculus [2] of 47 mg/kg.
Consider `CCCc1ccc(CC[C@H](C[C@H](C)C(=O)O)C(=O)N[C@@H](CC(C)C)C(=O)Nc2ccccc2)cc1`, for which the Ki is 68 nM on Stromelysin-1, 310 nM in test [3] and greater than 10000 nM at Interstitial collagenase. In the test with Mus musculus [2], this molecule displayed an ED50 of 32 mg/kg.
Molecule `CCCc1ccc(CC[C@H](N[C@H](C)C(=O)O)C(=O)N[C@@H](CC(C)C)C(=O)Nc2ccccc2)cc1` displayed an inhibition in vivo at 30 mg/kg with Mus musculus [1] of 63%. Besides, the ED50 in the test on Mus musculus [2] stood at 65 mg/kg.
Molecule `CC(C)C[C@H](NC(=O)[C@H](CCc1ccccc1)N[C@H](C)C(=O)O)C(=O)Nc1ccccc1` [L-696418] showed an inhibition in vivo at 30 mg/kg in the test on Mus musculus [1] of 50%. The molecule also had an inhibition in vivo at 100 mg/kg with Mus musculus [2] of 55%. The molecule also came in with a Ki at Interstitial collagenase of 770 nM.
